From patent US20180200172A1, “REAGENTS AND METHODS FOR WHITENING TEETH” (UNIVERSITY OF WASHINGTON THROUGH ITS CENTER FOR …, priority 2015, published 2018)

Experiments:
[1] = In vitro re-mineralization of tea-stained rat tooth with peptide solution; conditions: peptide 10 min 37° C., then CaCl2/KH2PO4 16 hours 37° C., control in Tris buffer
Method: Rat teeth (molars) were obtained from sacrificed rats (for example, Sprague Dawley rats, age 3 weeks or older) from animal facility, collected, and stored in 100% alcohol. Prior to the re-mineralization experiments the teeth were stored in 1% bleach for 24 hours. […] The teeth were then dried in an incubator in air at 37° C. for 3-6 hours to produce dry surface. The root site and section the crown were removed vertically using a diamond blade. Pictures were taken with camera attached to optical microscope. Exposed dentine sites in the one half of the sectioned tooth were etched with 35% phosphoric acid (Ultraetch™) for 60 seconds (to facilitate the stain intake). The etching gel was removed by rinsing the sample with distilled water for 3 minutes. The staining solution was prepared by boiling 2 g of tea in 100 ml of deionized water for 5 minutes, and then cooled down to room temperature and filtered. The tooth sample was soaked in the staining solution and incubated at 37° C. at 150 rpm for 24 hours. The tooth was removed from the staining solution and sonicated for 30 seconds in deionized water (sonic bath) to remove the excess amount of tea particles attached to tooth extrinsically. The one half of the sectioned tooth was cut vertically into half again to form two quarter sections of the tooth. A second set of pictures were taken with camera attached to optical microscope. […]

[2] = In vitro re-mineralization of tea-stained human tooth with peptide solution; line profile analysis (Mean Pixel Intensity, ImageJ)
Method: A caries-free human tooth was sterilized in 1% bleach solution for 24 hours then removed and vigorously rinsed with deionized water. The root site was removed and the crown sectioned vertically using a diamond blade. Pictures were taken with a camera attached to an optical microscope.
The exposed dentine sites were etched with 35% phosphoric acid (Ultraetch™) for 60 seconds (to facilitate the stain intake). The etching gel was removed by rinsing the sample with distilled water for 3 minutes. The staining solution was prepared by boiling 2 g of tea in 100 ml of deionized water for 5 minutes, which was then cooled down to room temperature and filtered. The tooth was soaked in the staining solution and incubated at 37° C. at 150 rpm for 24 hours. The tooth was then removed from the staining solution and sonicated for 30 seconds in deionized water (sonic bath) to remove the excess amount of tea particles attached to tooth extrinsically. The sectioned tooth was cut vertically in half again to form two quarter sections of the tooth. FIGS. 2(a) to 2(g) show various sections of the tooth after the staining. […] Figures (b), (c) and (d) show different views of the left quarter of the tooth that was sectioned from the tooth. Figures (e), (f) and (g) show different views of the right quarter of the tooth that was sectioned from the tooth. As can be observed from FIGS. 2(a) to 2(g), brown stains from the staining solution were formed on the surface and below the surface of the tooth. The left quarter of the tooth was stored in 24 mM Tris Buffer (pH: 7.4) for control and the right quarter of the tooth (test tooth) was used for in vitro re-mineralization. The test tooth was submerged into peptide solution (600 μl) containing a mineralization polypeptide in a 48 well plate and incubated for 10 minutes at 37° C. After incubation, the tooth was removed and placed into to a new well. A mineralization solution of 400 μl of 9.6 mM CaCl2 and 400 μl of 5.6 mM KH2PO4 was added and quickly mixed by pipetting the solution up and down. […]

[3] = Solution mineralization approach, 25 rounds, colour measured with Minolta Chroma Meter CR-200; conditions: unstained sectioned human tooth, peptide 10 minutes, calcium/phosphate ions 2 hours 37° C.
Excerpt: The root site of an extracted human tooth was removed and the crown portion of the tooth was sectioned vertically into half. A thin layer of enamel was removed from one half of the sectioned tooth such that the dentin layer is exposed without completely removing the enamel on the tooth. This allowed imaging of the enamel surfaces after the mineralization experiment without the problem of surface reflection, and provides a more parallel surface from which to compare the whiteness results. The sectioned tooth was fixed onto a glass slide with epoxy. Initial color measurements of each of the four sides of the sectioned tooth was obtained using a Minolta Chroma Meter CR-200 (Konica Minolta, Tokyo, Japan), according to manufacturer instructions, using a white background and a black background. The sectioned tooth was incubated in a mineralization polypeptide solution for 10 minutes at 37° C. and then in a solution with calcium ions and phosphate ions for 2 hours at 37° C. Color measurements of each of the four sides of the sample were taken as described initially. The sectioned was rinsed with deionized water and the remineralization process (incubation in polypeptide solution, incubation in solution of ion sources, and rinsing with deionized water) was repeated for a total of 25 rounds. The mineralization polypeptide was SYENSHSQAINVDRT (shADP5; SEQ ID NO:16).

[4] = Solution mineralization approach on tetracycline-stained human teeth; line profile analysis (Mean Pixel Intensity); conditions: for Mean Pixel Intensity: shADP5 0.8 mM, tetracycline-stained
Excerpt: Human teeth, donated by the University of Washington School of Dentistry (Seattle, Wash., USA), were selected for their clean, smooth surfaces. The teeth were sterilized in bleach, cut on a diamond blade to remove the root, and halved. A thin layer of the enamel surface was then cut on one of the halves parallel to the previous cut, such that the dentin layer could be seen without completely removing the enamel on the tooth. This allowed imaging of the enamel surfaces after the mineralization experiment without the problem of surface reflection encountered in previous experiments, in addition to a more parallel surface from which to compare the brightness or whiteness results. The cut enamel side of the tooth sample was then sonicated in DI water and polished on diamond slurry smooth out the surface for imaging. The sample was then cut into quarters, with the lower half selected for a tetracycline experiment because of the even distribution of dentin coloring in the lower quarters of the tooth sample. The samples were then stained in 10 mg/mL tetracycline solution for five days.
During mineralization, using a 96-well plate, one of the stained halves was stored in 1200 μL Tris (24 mM) as a negative control, and the experimental sample was incubated in 150 μL shADP5 (0.8 mM) at 37° C. for 10 minutes. The experimental sample was then rinsed of excess peptide with deionized water and then stored in 600 μL CaCl2 (9.6 mM), to which 600 μL monobasic KH2PO4 (5.76 mM) was added. The well plate containing both the control and experimental samples was then stored at 37° C. for about 24 hours for mineralization to occur on the treated stained tooth sample.
[…] After 27 rounds of mineralization on the experimental sample, the tooth was inspected for changes in brightness qualitatively. The stained negative control was polished to expose the original enamel stain in order to compare the whitening effect of the peptide mineralization.

[5] = Kinetic profile of mineral formation; conditions: fast = immediate mineral formation; slow = about 5 minutes to about 1 hour
Method: Fast kinetics refers to fast mineral formation, such as immediate mineral formation, while slow mineral formation refers to mineral formation over a period of time, such as about 5 minutes to about 1 hour. In some embodiments, a first biomineralizing peptide having faster kinetics can be used in combination with a second biomineralizing peptide having slower kinetics.

Substance: SYENSHSQAINVDRT [shADP5, shortened amelogenin derived polypeptide ADP5]
- colour of treated tooth quarter versus control [1]: lighter in color than the control
- Mean Pixel Intensity ([2]; Whitened (stained and remineralized), 0 = completely black, 100 = completely white, Bar C in FIG. 4): 96.21 ± 2.39
- whiteness versus original tooth and stained tooth ([2]; after staining and remineralization, from MPI in FIG. 4): improved whiteness over the original tooth and the stained tooth
- colour of treated tooth quarter versus control ([2]; tea-stained human tooth, peptide 10 minutes 37° C., then CaCl2/KH2PO4 16 hours 37° C., control in Tris buffer): lighter in color than the left quarter (control)
- whiteness of the tooth enamel [3]: whiteness of the tooth enamel improved with each round of remineralization
- Mean Pixel Intensity ([4]; After 3 rounds of remineralization, Bar B in FIG. 6): 69.47 ± 2.96
- Mean Pixel Intensity ([4]; After 4 rounds of remineralization, Bar C in FIG. 6): 70.11 ± 2.92
- Mean Pixel Intensity ([4]; After 5 rounds of remineralization, Bar D in FIG. 6): 70.79 ± 1.96
- Mean Pixel Intensity ([4]; After 7 rounds of remineralization, Bar E in FIG. 6): 74.47 ± 2.13
- whiteness of the stained tooth ([4]; repeated rounds of remineralization (3 to 7 rounds)): whiteness of the stained tooth improves with repeated rounds of remineralization

Substance: (HPP(S/T)HTLQPHHH(L/I)PVVPAQQPV (A/I)PQQPMMPVPG(H/Q)HSMTP(T/I)QH)1-10 [ADP7]
- kinetic profile (mineral formation) [5]: slow kinetic profile

Substance: (PGYIN(L/F)SYE(K/N)SHSQAIN(T/V)DRTA)1-10 [ADP5]
- kinetic profile (mineral formation) [5]: fast kinetic profile
